From patent US20250215029A1 (Recludix Pharma, Inc., priority 2022, published 2025) come the findings set out here.

Read-outs that look alike come from different tables or passages of the source. Bounds are passed on as bounds.

One experiment concerns the target T1, pY641-STAT6 in PBMC (Homo sapiens, UniProt P42226).
T1 construct: Cryopreserved Peripheral Blood Mononuclear Cells (PBMC) are from AllCells; host or cells: cryopreserved PBMC
T1 sequence (P42226 1-847): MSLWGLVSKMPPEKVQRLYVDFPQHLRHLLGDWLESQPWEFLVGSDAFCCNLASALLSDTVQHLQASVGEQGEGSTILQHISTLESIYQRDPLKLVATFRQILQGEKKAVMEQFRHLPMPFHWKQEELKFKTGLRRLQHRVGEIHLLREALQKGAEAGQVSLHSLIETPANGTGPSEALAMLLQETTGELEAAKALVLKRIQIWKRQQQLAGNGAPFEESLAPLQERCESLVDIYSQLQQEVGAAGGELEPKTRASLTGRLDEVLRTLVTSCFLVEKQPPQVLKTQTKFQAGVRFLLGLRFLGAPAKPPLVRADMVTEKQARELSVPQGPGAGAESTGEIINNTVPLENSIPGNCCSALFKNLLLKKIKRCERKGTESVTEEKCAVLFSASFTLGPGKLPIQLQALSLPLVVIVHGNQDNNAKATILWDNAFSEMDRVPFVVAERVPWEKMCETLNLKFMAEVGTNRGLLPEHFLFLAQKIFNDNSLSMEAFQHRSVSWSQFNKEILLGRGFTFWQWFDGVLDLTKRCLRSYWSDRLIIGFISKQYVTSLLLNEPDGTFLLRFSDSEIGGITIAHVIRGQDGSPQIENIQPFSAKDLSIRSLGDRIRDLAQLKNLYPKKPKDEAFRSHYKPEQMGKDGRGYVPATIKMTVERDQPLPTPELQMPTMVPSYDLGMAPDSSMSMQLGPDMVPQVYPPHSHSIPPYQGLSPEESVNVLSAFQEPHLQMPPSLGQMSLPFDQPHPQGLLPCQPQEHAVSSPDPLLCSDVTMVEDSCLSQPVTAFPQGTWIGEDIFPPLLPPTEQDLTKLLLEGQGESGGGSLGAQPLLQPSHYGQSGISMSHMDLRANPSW
Briefly: MSD-pSTAT-PBMC Assay (pSTAT6, IL-4 stimulated). Format: cell-based. The conditions noted are these: PBMC, compound 3 hrs, then 1 ng/mL IL-4 for 10 min. The essentials:
(§1)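 Thawed human PBMC rested overnight in IMDM/10% FBS, then got compound for 3 hrs before a 10 min cytokine pulse: 1 ng/mL IL-4 for pSTAT6, 10 ng/mL IL-6 for pSTAT3. Lysates went to MSD sandwich capture on total STAT6 or STAT3 with phospho-specific detection. IC50 came from background-subtracted, DMSO-normalized signal.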

The target of a further experiment is T2, pY705-STAT3 in PBMC (Homo sapiens, UniProt P40763).
T2 construct: Cryopreserved Peripheral Blood Mononuclear Cells (PBMC) are from AllCells; host or cells: cryopreserved PBMC
T2 sequence (P40763 whole entry): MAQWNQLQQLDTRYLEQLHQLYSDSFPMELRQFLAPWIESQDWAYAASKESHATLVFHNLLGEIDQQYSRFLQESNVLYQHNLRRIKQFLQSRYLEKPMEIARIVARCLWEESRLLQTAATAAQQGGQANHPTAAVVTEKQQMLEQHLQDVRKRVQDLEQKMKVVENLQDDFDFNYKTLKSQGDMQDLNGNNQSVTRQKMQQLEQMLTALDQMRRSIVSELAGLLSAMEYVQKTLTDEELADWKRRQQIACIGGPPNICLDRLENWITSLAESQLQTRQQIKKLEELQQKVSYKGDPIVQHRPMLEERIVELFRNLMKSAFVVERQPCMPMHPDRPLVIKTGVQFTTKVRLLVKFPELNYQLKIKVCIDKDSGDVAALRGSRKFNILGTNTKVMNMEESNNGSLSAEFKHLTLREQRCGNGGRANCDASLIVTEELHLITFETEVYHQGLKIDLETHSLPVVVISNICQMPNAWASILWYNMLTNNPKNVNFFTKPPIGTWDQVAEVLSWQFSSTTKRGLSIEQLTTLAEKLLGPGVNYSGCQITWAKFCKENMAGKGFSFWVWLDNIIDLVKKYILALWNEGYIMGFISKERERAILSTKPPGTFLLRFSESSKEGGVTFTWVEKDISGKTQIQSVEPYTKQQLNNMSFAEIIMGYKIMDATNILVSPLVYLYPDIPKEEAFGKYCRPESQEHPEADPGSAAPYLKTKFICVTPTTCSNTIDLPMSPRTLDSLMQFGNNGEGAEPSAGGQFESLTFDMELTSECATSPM
Put plainly: MSD-pSTAT-PBMC Assay (pSTAT3, IL-6 stimulated). Format: cell-based. The note with it: PBMC, compound 3 hrs, then 10 ng/mL IL-6 for 10 min. The essentials: as §1

As to `COCC(=O)SCCOP(=O)(OCCSC(=O)COC)C(F)(F)c1ccc2sc(C(=O)N[C@H]3CCC[C@H]4CC[C@@H](C(=O)N5CC(c6cccnc6)C5)N4C3=O)cc2c1` [Compound 1011, S,S′-((((difluoro(2-(((3S,6S,9aS)-5-oxo-3-(3-(pyridin-3-yl)azetidine-1-carbonyl)octahydro-1H-pyrrolo[1,2-a]azepin-6-yl)carbamoyl)benzo [b]thiophen-5-yl)methyl)phosphoryl)bis(oxy))bis(ethane-2,1-diyl)) bis(2-methoxyethanethioate)], the IC50 on pY641-STAT6 in PBMC (Table 115, read-out: STAT6) was 100 to 1000 nM; at pY705-STAT3 in PBMC (Table 115, read-out: STAT3), under 100 nM.
For `CC(C)(C)C(=O)SCCOP(=O)(OCCSC(=O)C(C)(C)C)C(F)(F)c1ccc2sc(C(=O)N[C@H]3CCC[C@H]4CC[C@@H](C(=O)N5CC(CS(C)(=O)=O)C5)N4C3=O)cc2c1` [Compound 1014, S,S′-((((difluoro(2-(((3S,6S,9aS)-3-(3-((methylsulfonyl)methyl)azetidine-1-carbonyl)-5-oxooctahydro-1H-pyrrolo[1,2-a]azepin-6-yl)carbamoyl)benzo [b]thiophen-5-yl)methyl)phosphoryl)bis(oxy))bis(ethane-2,1-diyl)) bis(2,2-dimethyl-propanethioate)], the IC50 is 100 to 1000 nM at pY641-STAT6 in PBMC (Table 115, read-out: STAT6) and under 100 nM on pY705-STAT3 in PBMC (Table 115, read-out: STAT3).
For `CC(C)CC(=O)SCCOP(=O)(OCCSC(=O)CC(C)C)C(F)(F)c1ccc2sc(C(=O)N[C@H]3CCCC[C@H]4CC[C@@H](C(=O)N5CC(c6ccccc6)CC56CC6)N4C3=O)cc2c1` (stereo partly drawn) [Compound 1082, S,S′-((((difluoro(2-(((3S,6S,10aS)-5-oxo-3-(6-phenyl-4-azaspiro[2.4]heptane-4-carbonyl)decahydropyrrolo[1,2-a]azocin-6-yl)carbamoyl)benzo [b]thiophen-5-yl)methyl)phosphoryl)bis(oxy))bis(ethane-2,1-diyl)) bis(3-methylbutanethioate)] the same measures were 100 to 1000 nM and over 3000 nM.
Consider `CC(C)CC(=O)SCCOP(=O)(OCCSC(=O)CC(C)C)[C@@H](F)c1ccc2sc(C(=O)N[C@H]3CCC[C@H]4CC[C@@H](C(=O)N5CC(c6cccnc6)C5)N4C3=O)cc2c1` [Compound 1089, S,S′-(((((R)-fluoro(2-(((3S,6S,9aS)-5-oxo-3-(3-(pyridin-3-yl)azetidine-1-carbonyl)octahydro-1H-pyrrolo[1,2-a]azepin-6-yl)carbamoyl)benzo [b]thiophen-5-yl)methyl)phosphoryl)bis(oxy))bis(ethane-2,1-diyl)) bis(3-methylbutanethioate], for which the IC50 on pY641-STAT6 in PBMC (Table 115, read-out: STAT6) was 100 to 1000 nM; on pY705-STAT3 in PBMC (Table 115, read-out: STAT3), under 100 nM.
For `CC(C)CC(=O)SCCOP(=O)(OCCSC(=O)CC(C)C)C(F)(F)c1ccc2ccc(C(=O)N[C@H]3CCCC[C@H]4CC[C@@H](C(=O)N5CC(c6cc[nH]c(=O)c6)CC56CC6)N4C3=O)cc2c1` (stereo partly drawn) [Compound 1092, S,S′-((((difluoro(7-(((3S,6S,10aS)-5-oxo-3-(6-(2-oxo-1,2-dihydropyridin-4-yl)-4-azaspiro[2.4]heptane-4-carbonyl)decahydropyrrolo[1,2-a]azocin-6-yl)carbamoyl)naphthalen-2-yl)methyl)phosphoryl)bis(oxy))bis(ethane-2,1-diyl)) bis(3-methylbutanethioate)], in that order: under 100 nM and 100 to 1000 nM.
Consider `CC(C)CC(=O)SCCOP(=O)(OCCSC(=O)CC(C)C)C(F)(F)c1ccc2ccc(C(=O)N[C@H]3CCCC[C@H]4CC[C@@H](C(=O)N5CC(c6ccccc6)CC56CC6)N4C3=O)cc2c1` (stereo partly drawn) [Compound 1101, S,S′-((((difluoro(7-(((3S,6S,10aS)-5-oxo-3-(6-phenyl-4-azaspiro[2.4]heptane-4-carbonyl)decahydropyrrolo[1,2-a]azocin-6-yl)carbamoyl)naphthalen-2-yl)methyl)phosphoryl)bis(oxy))bis(ethane-2,1-diyl)) bis(3-methylbutanethioate)], for which the IC50 is under 100 nM at pY641-STAT6 in PBMC (Table 115, read-out: STAT6) and over 3000 nM on pY705-STAT3 in PBMC (Table 115, read-out: STAT3).
With `COCCC(=O)SCCOP(=O)(OCCSC(=O)CCOC)C(F)(F)c1ccc2sc(C(=O)N[C@H]3CCC[C@H]4CC[C@@H](C(=O)N5CC(c6cccnc6)C5)N4C3=O)cc2c1` [Compound 1106, S,S′-((((difluoro(2-(((3S,6S,9aS)-5-oxo-3-(3-(pyridin-3-yl)azetidine-1-carbonyl)octahydro-1H-pyrrolo[1,2-a]azepin-6-yl)carbamoyl)benzo [b]thiophen-5-yl)methyl)phosphoryl)bis(oxy))bis(ethane-2,1-diyl)) bis(3-methoxy-propanethioate)], the IC50 on pY641-STAT6 in PBMC (Table 115, read-out: STAT6) was 100 to 1000 nM; on pY705-STAT3 in PBMC (Table 115, read-out: STAT3) it was under 100 nM.
Turning to “S,S′- ((((difluoro(2- (((3S,6S,9aS)-5-oxo-3- (3-(pyridin-3- yl)azetidine-1- carbonyl)octahydro- 1H-pyrrolo[1,2-a] azepin-6-yl) carbamoyl)benzo[b] thiophen-5-yl)methyl) phosphoryl)bis(oxy)) bis(ethane-2,1-diyl)) bis(2,2- dimethylpropanethioate) [Compound 175]”, the IC50 is 100 to 1000 nM at pY641-STAT6 in PBMC (Table 1114, read-out: pSTAT6) and under 100 nM on pY705-STAT3 in PBMC (Table 1114, read-out: pSTAT3).
For “S-(2- (((difluoro(2- (((3S,6S,9aS)-3-(3-((S- methylsulfonimidoyl) methyl)azetidine-1- carbonyl)-5- oxooctahydro-1H- pyrrolo[1,2-a]azepin-6- yl)carbamoyl)benzo[b] thiophen-5-yl)methyl) (((3-methylbutanoyl) thio)methoxy) phosphoryl)oxy)ethyl) 3-methylbutane thioate [Compound 178]” the same measures were over 3000 nM and 100 to 1000 nM.
On to “S-(2-((((2- (((3S,6S,9aS)-3-(3-(3- cyanophenyl) azetidine-1-carbonyl)-5- oxooctahydro-1H- pyrrolo[1,2-a]azepin-6- yl)carbamoyl)benzo[b] thiophen-5-yl) difluoromethyl)(((3- methylbutanoyl)thio) methoxy)phosphoryl) oxy)ethyl) 3- methylbutane thioate [Compound 176]”, for which the IC50 at pY641-STAT6 in PBMC (Table 1114, read-out: pSTAT6) is 1000 to 3000 nM; at pY705-STAT3 in PBMC (Table 1114, read-out: pSTAT3), under 100 nM.
On to “S-(2-((((2- (((3S,6S,10aS)-3- ((3S,4R or 3R,4S)-3- cyano-4- phenylpyrrolidine-1- carbonyl)-5- oxodecahydro- pyrrolo[1,2-a] azocin-6- yl)carbamoyl) benzo[b]thiophen- 5-yl)difluoromethyl) (2-(pivaloylthio) ethoxy)phosphoryl) oxy)ethyl) butanethioate [Compound 165]”, for which the IC50 fell in the range of 100 to 1000 nM on pY641-STAT6 in PBMC (Table 1114, read-out: pSTAT6) and 1000 to 3000 nM at pY705-STAT3 in PBMC (Table 1114, read-out: pSTAT3).
